Consider 5 molecules from article PMC12621189, “Optimization of Selective and CNS Penetrant Alkyne-Based TREK Inhibitors: The Discovery and Characterization of ONO-9517601 (VU6022856) and ONO-7927846 (VU6024391)” (Journal of Medicinal Chemistry, 2025).

One series addresses T1, human TREK-1 (hTREK-1) (Homo sapiens, UniProt O95069).
T1 construct: expressed in transfected cells
T1 sequence (O95069 1-426): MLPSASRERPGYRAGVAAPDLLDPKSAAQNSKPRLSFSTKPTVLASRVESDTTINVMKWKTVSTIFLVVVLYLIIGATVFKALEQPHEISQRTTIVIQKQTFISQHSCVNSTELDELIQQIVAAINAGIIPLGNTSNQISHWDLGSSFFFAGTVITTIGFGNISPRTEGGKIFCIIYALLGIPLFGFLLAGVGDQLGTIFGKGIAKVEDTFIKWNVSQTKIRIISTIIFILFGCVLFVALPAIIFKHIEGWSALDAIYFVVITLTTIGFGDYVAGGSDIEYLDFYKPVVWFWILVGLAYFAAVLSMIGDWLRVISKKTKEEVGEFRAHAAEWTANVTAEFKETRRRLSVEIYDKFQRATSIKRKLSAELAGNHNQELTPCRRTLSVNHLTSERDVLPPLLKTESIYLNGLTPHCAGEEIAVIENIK
Description: TREK-1 thallium flux assay (CHO-K1 cells stably expressing hTREK-1). In kind it is cell-based. Particulars: human TREK-1, thallium flux; read-out: h TREK-1 Tl+ IC50. On the procedure: Procedures for Biological Experiments
TREK-1 Thallium flux assay
CHO-K1 cells stably expressing hTREK-1 were cultured in T225 flask. The cells were loaded with FluxOR dye and plated in 384 well plate at the experiment day. Test compounds or control compound (tert-butyl (3-((4-(benzyloxy)-2-methylphenyl)carbamoyl)-4-chlorophenyl)carbamate) or 0.3% DMSO (vehicle control) were added directly to the cell plates and incubated for 10 min, and then treated with thallium stimulus buffer to initiate thallium flux.
To measure the efficacy and potency of test compounds, the change in fluorescence intensity (ΔRatio) and % inhibition were calculated using the following equations:
ΔRatio = (fluorescence intensity at 25 seconds after thallium addition)/(average of fluorescent intensity before thallium addition)
(§1) 0.3% DMSO - ΔRatio of 10 μM control compound)}x100
(§2) % inhibition vs compound concentration were plotted in XLfit and calculated IC50.
CHO-K1 cells stably expressing human TREK-1 (hTREK-1) were cultured in T225 flask.
The cells were loaded with FluxOR dye and plated in 384 well plate at the experiment day. Test compounds or control compound (tert-butyl (3-((4-(benzyloxy)-2-methylphenyl)carbamoyl)-4-chlorophenyl)carbamate) or 0.3% DMSO (vehicle control) which were prepared on separate plates were added to the cell plates and incubated for 10 min, and then the cells with test compounds or […]
chlorophenyl)carbamate) or 0.3% DMSO (vehicle control) were treated with thallium stimulus buffer to initiate thallium flux. To measure the efficacy and potency of test compounds, the change in fluorescence intensity (ΔRatio) and % inhibition were calculated using the following equations: […]

Series [1] can be described thus: Liver microsome intrinsic clearance, human. The class given is in vitro ADME. The following applies: pH 7.4; human liver microsomes, predicted intrinsic clearance; read-out: LMS CLINT human. Here is the method:
(§3) were incubated in 100 mM potassium phosphate pH 7.4 buffer with 3 mM MgCl2 at 37 °C with constant shaking. After a 5 min preincubation, the reaction was initiated by the addition of NADPH (1 mM). At selected time intervals (0, 3, 7, 15, 25, and 45 min), aliquots were taken and subsequently placed into a 96-well plate containing cold acetonitrile with internal standard (50 ng/mL carbamazepine). Plates were then centrifuged at 3000 rcf (4 °C) for 10 min, and the supernatant was transferred to a separate 96-well plate and diluted 1:1 with water for LC/MS/MS analysis. The in vitro half-life ( 1/2, min, Eq. 1), intrinsic clearance (CLint, mL/min/kg, Eq. 2), and subsequent predicted hepatic clearance (CLhep, mL/min/kg, Eq. 3) was determined employing the […]
(§4) where k represents the slope from linear regression analysis of the natural log percent remaining of a test compound as a function of incubation time […]
(§5) (2) CLint = in vitroT x mg microsomes x gram liver x kg body wt ascale-up factors: of 20 (human) or 45 (rat) […]
(§6) where Qh (hepatic blood flow, mL/min/kg) is 21 (human) or 70 (rat).
(§7) LC/MS/MS Bioanalysis of Samples from Plasma Protein Binding and Intrinsic Clearance […]
(§8) Samples were analyzed on a Thermo Electron TSQ Quantum Ultra triple quad mass spectrometer (San Jose, CA) via electrospray ionization (ESI) with two Themo Electron Accella pumps (San Jose, CA), and a Leap Technologies CTC PAL autosampler (Carrboro, NC). Analytes were […]

A further series is described as follows: ChromatoLogD. In kind it is physicochemical.
Series [2] is described as follows: Liver microsome intrinsic clearance, mouse. The class given is in vitro ADME. Particulars: pH 7.4; mouse liver microsomes, predicted intrinsic clearance; read-out: LMS CLINT mouse.
A short description of series [3]: Plasma protein binding, rat. The class given is in vitro ADME. The following applies: rat, plasma, pH 7.4, rat plasma, bound; read-out: PPB rat (converted). On the procedure: (§9) Plasma protein binding and Brain homogenate binding: Determination of fraction unbound (f u) in plasma was conducted in vitro via equilibrium dialysis using HTDialysis (HTD) membrane plates. The top half of the plate was filled with 100 uL of Dubelco’s Phosphate Buffered Saline, pH 7.4 (DPBS). Compounds were diluted into plasma from each species (5 µM final concentration), which was aliquoted in triplicate to the ‘bottom half’ of the prepared HTD plate wells. The HTD plate was sealed and incubated for 6 hours at 37 °C. Following incubation, each well (both top and bottom halves) were transferred (20 µL) to the corresponding wells of a 96-shallow-well (V-bottom) plate. The daughter plates were then matrix-matched (DPBS side wells received equal volume of plasma, and plasma side wells received equal volume of DPBS), and extraction solution (120 µL; acetonitrile containing 50 nM carbamazepine as IS) was added to all wells of both daughter plates to precipitate protein and extract test article. The plates were then sealed and centrifuged (3500 rcf) for 10 minutes at ambient temperature. Supernatant (60 µL) from each well of the daughter plates was then transferred to the corresponding wells of new daughter plates (96-shallow-well, V bottom) containing water (Milli-Q, 60 µL/well), and the plates were sealed in preparation for LC-MS/MS analysis (see LC-MS/MS analysis method below).
(§10) The unbound fraction (f u) was calculated following the equation below, and mean values for each species were calculated from 3 replicates. […]
(§11) Fraction unbound for both plasma and brain samples was determined using Equation 4.
(§12) Equation 4 Determination of fraction unbound in plasma. […]

The nature of series [4]: Plasma protein binding, mouse. In kind it is in vitro ADME. Particulars: mouse, plasma, pH 7.4, mouse plasma, bound; read-out: PPB mouse (converted). On the procedure:
as §9, §10, §11, §12

A short description of series [5]: Liver microsome intrinsic clearance, rat. The class given is in vitro ADME. The following applies: pH 7.4; rat liver microsomes, predicted intrinsic clearance; read-out: LMS CLINT rat. On the procedure:
as §3, §4, §5, §6, §7, §8

Another series deals with T2, human TREK-2 (hTREK-2) (Homo sapiens, UniProt P57789).
T2 construct: expressed in transfected cells
T2 sequence (P57789 1-538): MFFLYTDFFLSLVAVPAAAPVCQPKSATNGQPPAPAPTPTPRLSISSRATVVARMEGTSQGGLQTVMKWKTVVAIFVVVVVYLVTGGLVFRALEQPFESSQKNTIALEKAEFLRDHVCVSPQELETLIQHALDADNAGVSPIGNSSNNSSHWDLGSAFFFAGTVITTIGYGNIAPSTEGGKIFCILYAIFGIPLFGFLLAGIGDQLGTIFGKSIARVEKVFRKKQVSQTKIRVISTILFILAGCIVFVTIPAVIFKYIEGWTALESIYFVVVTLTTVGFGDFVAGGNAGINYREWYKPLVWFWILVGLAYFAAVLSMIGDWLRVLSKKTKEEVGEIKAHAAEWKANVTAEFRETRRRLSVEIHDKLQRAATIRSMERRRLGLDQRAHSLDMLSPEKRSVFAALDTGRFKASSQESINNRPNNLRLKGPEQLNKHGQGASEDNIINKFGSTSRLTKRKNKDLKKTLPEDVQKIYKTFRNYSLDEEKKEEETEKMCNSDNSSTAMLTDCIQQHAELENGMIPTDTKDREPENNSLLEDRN
Description: TREK-2 thallium flux assay (HEK293 cells stably expressing hTREK-2). The class given is cell-based. The following applies: human TREK-2, thallium flux; read-out: h TREK-2 Tl+ IC50. On the procedure:
as §1, §2
TREK-2 Thallium flux assay
HEK293 cells stably expressing human TREK-2 (hTREK-2) are plated in 384-well plates, cultured overnight, loaded with Thallos dye the following day. Test compounds or control compound (tert-butyl (3-((4-(benzyloxy)-2-methylphenyl)carbamoyl)-4-chlorophenyl)carbamate) or 0.3% DMSO (vehicle control) which are prepared on separate plates are added to the cell plates and incubated for 10 min, and then the cells were treated with thallium stimulus buffer to initiate […]
To measure the efficacy and potency of test compounds, the change in fluorescence intensity (ΔRatio) and % inhibition are calculated using the following equations: […]

In general, IC50 refers to the point on the concentration scale where inhibition reaches its midpoint. The chromatographic logD is lipophilicity estimated from chromatographic retention. A higher chromatographic logD goes with higher lipophilicity.

For `Cc1cc(C#Cc2ccccc2)cnc1NC(=O)c1cc(-c2noc(C3CCOC3)n2)ccc1Cl` (centres unmarked) [Compound 13b, 2-Chloro-N-(3-methyl-5-(phenylethynyl)pyridin-2-yl)-5-(5-(tetrahydrofuran-3-yl)-1,2,4-oxadiazol-3-yl)benzamide], at human TREK-1 (hTREK-1), the IC50 worked out at 48 nM. The CLint scaled at 1 µM is 71 mL/min/kg in series [1] and 68 mL/min/kg in series [2]. Also, the chromatographic logD in the series “ChromatoLogD” was found to be 5.01.
As to `Cc1cc(C#Cc2ccccc2)cnc1NC(=O)c1c(Cl)cnn1-c1ccc2c(cnn2C)c1` [Compound 15c, 4-Chloro-1-(1-methyl-1H-indazol-5-yl)-N-(3-methyl-5-(phenylethynyl)pyridin-2-yl)-1H-pyrazole-5-carboxamide], in series [3], the fraction unbound at 6 h, 5 µM is 0.002. In addition, the IC50 at human TREK-1 (hTREK-1) came out at 84 nM.
For `Cc1cc(C#Cc2ccccc2)cnc1NC(=O)c1c(Cl)cnn1CCCC#N` [Compound 15d, 4-Chloro-1-(3-cyanopropyl)-N-(3-methyl-5-(phenylethynyl)pyridin-2-yl)-1H-pyrazole-5-carboxamide], the fraction unbound at 6 h, 5 µM in series [4] is 0.001. Besides, the CLint scaled at 1 µM in series [1] was 9 mL/min/kg; in series [5] it was 30 mL/min/kg.
As to `CC(=O)N1C[C@H]2C[C@H](n3ncc(Cl)c3C(=O)Nc3ncc(C#Cc4ccccc4)cc3C)C[C@H]2C1` [Compound 15g, 1-((3aR,5s,6aS)-2-Acetyloctahydrocyclopenta[c]pyrrol-5-yl)-4-chloro-N-(3-methyl-5-(phenylethynyl)pyridin-2-yl)-1H-pyrazole-5-carboxamide], the fraction unbound at 6 h, 5 µM in series [3] is 0.009.
With `CC(=O)N1CC[C@@H](n2ncc(Cl)c2C(=O)Nc2ncc(C#Cc3ccccc3)cc2C)[C@H](F)C1` [Compound 16b, 1-((3R,4R)-1-Acetyl-3-fluoropiperidin-4-yl)-4-chloro-N-(3-methyl-5-(phenylethynyl)pyridin-2-yl)-1H-pyrazole-5-carboxamide], the IC50 on human TREK-1 (hTREK-1) was 96 nM; on human TREK-2 (hTREK-2), 290 nM. In addition, the CLint scaled at 1 µM was 13 mL/min/kg in series [1] and 94 mL/min/kg in series [5].
